In US11234982B2, “Methods for treating ocular surface pain” (NOVARTIS AG, priority 2019, dated 2022):
“And” between values parts separate entries of the source, which are not always exact repeats. Equal values may be shown once.

Tests used:
cornea = test: Esthesiometry assessment (Part 3): corneal sensitivity, anesthetic effect; type: in vivo, human; details: for Anesthetic effect on the cornea (esthesiometry): single eye drop: tetracaine 0.5%, diclofenac 0.1%
Source text: Part 3 was an esthesiometry assessment to evaluate the anesthetic properties of compound I. Part 3 of the study had four arms, with compound I, vehicle, tetracaine (0.5% ophthalmic solution, used as a positive control) and diclofenac sodium (0.1% ophthalmic solution, used as the active NSAID comparator). Ocular anesthetic was selected because of its established anesthetic effect; however it is not the standard of care due to its negative effect on wound healing. NSAID is the current standard of care for corneal pain after PRK with minimal anesthetic but significant pain control properties. Vehicle eye drops were used as a negative control to enable better determination of the potential anesthetic effect. Twelve healthy subjects, who met the eligibility criteria, were randomized to receive a single eye drop of 4 study treatments, each during 1 of 4 different study days (Days 1, 4, 7 and 10). Each subject was randomized to receive the study treatment according to one of the following four sequences: • Sequence 1: Anesthetic, NSAID, compound I 2.5%, Vehicle • Sequence 2: NSAID, Vehicle, Anesthetic, compound I 2.5% • Sequence 3: Vehicle, compound I 2.5%, NSAID, Anesthetic • Sequence 4: compound I 2.5%, Anesthetic, Vehicle, NSAID
Inclusion Criteria: • Written informed consent was obtained before any assessment was performed. • Healthy male and female subjects aged 18 to 50 years (inclusive), and in good health as determined by past medical history, physical examination, vital signs, ECG, and laboratory tests at Screening. • At Screening, and Baseline, vital signs (systolic and diastolic blood pressure (BP) and pulse rate) were assessed in the sitting position after the subject had rested for at least 3 minutes and again after 3 minutes in the standing position. […] BMI=Body weight (kg)/[Height (m)]^2 • Subjects who were able to communicate well with the Investigator, to understand and comply with the requirements of the study. • For Part 3, subjects Baseline levels of eye sensitivity were to be in the range of 50 to 60 mm (inclusive) as measured by the Cochet-Bonnet esthesiometer.
The first-in-human study further evaluated potential anesthetic effect of topical ocular 2.5% compound I by esthesiometry testing, i.e. measurement of the filament length (cm) when the threshold of cornea touch is perceived.

[1] = test system: corneal epithelial wound after PRK surgery; test: PRK study: size of epithelial defect by slit lamp exam (wound healing); type: in vivo, human
Source text: Adverse events and serious adverse events included an assessment of both systemic and ocular assessments. Systemic safety assessments included regular assessments of height and weight, vital signs, reporting medication errors including misuse/abuse, pregnancy reporting and early phase safety monitoring. The misuse/abuse, pregnancy reporting and early phase safety monitoring were not assessed for the study. Ocular safety assessments included the following: • Best-corrected visual acuity (BCVA) and uncorrected visual acuity (UCVA): Was measured at each visit using an ETDRS visual acuity chart at 4 meters (13 feet) or 1 meter (for patients that cannot read the 4 meter chart). The BCVA scoring was done based on the number of correctly read letters plus 30. If visual acuity was so poor that the patient could not read any of the largest letters at 1 meter, count fingers and hand movement vision and light perception was tested. • Intraocular Pressure (TOP): IOP measurements were conducted with applanation tonometry or Tonopen. • Dilated fundus exam: The dilated fundus examination included ophthalmoscopic assessments of the vitreous, retina/macula/choroid, and optic nerve. Evaluations for retinal tear/detachment, retinal hemorrhage, vitreous hemorrhage density, vitreous haze grading and abnormal findings were done and scored according to grading criteria. • Ocular hyperemia: Conjunctival redness of the bulbar conjunctiva in each eye at the slit lamp according to the McMonnies redness scale was graded. […] By adjusting the calibrated slit beam width and height, the maximum horizontal (wound width) and vertical dimensions (wound height) of the surgical epithelial wound was estimated. The evaluation was performed until wound closure and report of wound size as 0 horizontal and 0 vertical dimensions. • Slit-lamp biomicroscopy: Ocular signs (eyelids/conjunctiva, cornea, lens, and iris/anterior chamber) was assessed in both eyes by slit lamp biomicroscopy according to the grading criteria. • Blink rate: A blink was defined as a bilateral paroxysmal closure of the eyelids (duration<1 second) in the absence of a provoking external stimulus. Each blink assessment lasted for 2 min (or as close to 2 minutes as possible with minimum time 1 minute) and the obtained blink rate was averaged to calculate blink rate in blinks/min. • Tear production (Schirmer's test without anesthesia): The test was performed without anesthetic in both eyes simultaneously. Tear secretion was measured in millimeters of the length of strip wetted by tears. […] The strip was wetted with 1 drop of sterile saline and flicked to remove excess saline. The patient blinked several times to ensure dispersion of the dye throughout the tear film prior to grading on a scale of 0-3 (0=Normal, No staining; 1=Mild, Superficial stippling micropunctate staining; 2=Moderate, Macropunctate staining with some coalescent areas and 3=Severe, Numerous coalescent macropunctate areas and/or patches) for each of 5 zones (central plus 4 quadrants).
Size of epithelial defect by slit lamp exam: In order to assess the rate of wound healing after administration of compound I, the size of the epithelial defect in both compound I and Vehicle treated populations was measured. The elliptical area of epithelial wound size was calculated as follows: […], from the width and height of the epithelial defect measured at the slit lamp. The difference in epithelial wound area between compound I and Vehicle was not noticeably different at any time point except at Day 2 post-PRK surgery (all p-values for the difference in area was >0.35). On Day 2 (24 hours post-operative), the difference in average epithelial defect area between patients treated with compound I vs. Vehicle was 11.23 mm2 (p value=0.034). This difference was not clinically significant in the immediate post-operative period. […]

## CC(C)c1nc2cc(O)ccc2c(=O)n1-c1ccc(C#N)cc1 [Compound I, 4-(7-hydroxy-2-isopropyl-4-oxo-4H-quinazolin-3-yl)-benzonitrile]
cornea; Compound I 2.5% (N=11) vs Tetracaine 0.5% (N=12) at 2.5 and 10 minutes post-dose
  Corneal sensitivity, least squares means, Test vs Ref: vs Tetracaine 0.5%: statistical and clinical significance were observed
cornea; compound I 2.5%, time points up to 30 minutes post-dose
  Difference in corneal sensitivity vs vehicle: No difference
cornea; compound I 2.5%
  Anesthetic effect on the cornea (esthesiometry): no anesthetic effect at any time point
cornea; compound I 2.5%, listed as compound I
  Anesthetic effect on the cornea (esthesiometry): lack of anesthetic effect
[1]; Day 1
  Epithelial defect area, Difference compound I-Vehicle, mean (SD): 2.98 (27.33) mm^2
  Epithelial defect size, Area, Raw mean (SD): 220.15 (32.26) mm^2
[1]; Day 2
  Epithelial defect area, Difference compound I-Vehicle, mean (SD): 11.23 mm^2 and 11.23 (32.30) mm^2
  Epithelial defect size, Area, Raw mean (SD): 83.02 (32.08) mm^2
[1]; Day 3
  Epithelial defect area, Difference compound I-Vehicle, mean (SD): 1.02 (8.78) mm^2
  Epithelial defect size, Area, Raw mean (SD): 6.75 (12.66) mm^2
[1]; Day 4
  Epithelial defect area, Difference compound I-Vehicle, mean (SD): 0.31 (2.11) mm^2
  Epithelial defect size, Area, Raw mean (SD): 0.39 (2.04) mm^2
[1]; Day 8
  Epithelial defect area, Difference compound I-Vehicle, mean (SD): 0.00 (0.00) mm^2
  Epithelial defect size, Area, Raw mean (SD): 0.00 (0.00) mm^2
[1]; after PRK surgery
  Wound healing compared to Vehicle: no delay in wound healing
